Test results published in US20250042925A1, “Improved Compositions and Methods for Targeting Mitochondria in Cancer Cells” (The Medical College of Wisconsin, Inc., priority 2021, published 2025).

What was measured:
[1] = system: HPNE and HPSC non-transformed cells; assay: Cell growth (confluence) of normal non-transformed cells; format: cell-based, human; details: for sensitivity of normal non-transformed cells compared to cancer cells: HPNE, HPSC versus cancer cells
Protocol: To test the off-target effects of the refined MMe analogs on normal non-transformed cells, the growth of HPNE cells (FIGS. 11A, 11D, and 11G), used as a surrogate for normal pancreatic ductal epithelium, or normal stromal HPSC cells (FIGS. 11B, 11E, and 11H) were measured in increasing concentrations of MMe, pCF3-MMe, or mCF3-MMe and compared to the vehicle control.
Murine pancreatic cancer cells KPC1242 (David Tuveson, Cold Spring Harbor), human pancreatic cancer cells, Panc-1 (ATCC: CRL-1469), human breast cancer cells MDA-MB-231 (ATCC: CRM-HTB-26), and human pancreatic stellate cells HPSC (Rosa F. Hwang, MD Anderson cancer) were all cultured in DMEM (Gibco ThermoFisher Scientific, Waltham, MA, Cat #11965084) containing 10% v/v fetal bovine serum (Omega Scientific, Inc., Tarzana, CA, Cat #FB-12). Human pancreatic cancer cells AsPC-1 (ATCC: CRL-1682), human ovarian cancer cells OVCAR-8 (NIH: CVCL-1629), and human ovarian cancer cells OVCAR-4 (NIH: CVCL-1627) were all cultured in DMEM (Gibco, Cat #22400089) containing 10% v/v fetal bovine serum (Omega Scientific). Human colon cancer cells HCT-116 (ATCC: CCL-247) were cultured in McCoy's 5A Modified Medium (Gibco, Cat #16600082) containing 10% v/v fetal bovine serum (Omega Scientific). Human pancreatic duct epithelial cells HPNE (ATCC: CRL-4023) were cultured in DMEM and 200 mM L-Glutamine and 7.5% w/v NaCO3 further supplemented with 15% v/v fetal bovine serum, M3-Base A (Incell, San Antonio, TX), 1M D-Glucose (Gibco Cat #J60067.EQE), 100 μg/mL human EGF (Gibco Cat #PHG0313) and 10 mg/mL puromycin (ThermoFisher, Cat #A1113802).

KPC1242 cells = assay: Seahorse Cell Mito Stress Test (oxygen consumption rate); format: cell-based, murine; details: 24 hours treatment, increasing concentrations
Protocol: To determine if the newly synthesized variants retain this functional specificity, further studies were conducted to determine if pCF3-MMe effectively impacts mitochondrial function and/or induces bioenergetic stress. KPC1242 cells were treated for 24 hours with increasing concentrations of MMe or pCF3-MMe, and oxygen consumption rate (OCR) was measured as a surrogate for oxidative phosphorylation linked mitochondrial respiration.
(§1) Cells were plated to Seahorse XF96 cell culture microplates at 20,000 cells/well. Stock compounds in DMSO were diluted in RPMI medium to a final concentration in […] volume, incubated at 37° C. for 24 hours, centrifuged at 200×g for 2 minutes, and conditioned medium removed and replaced with serum-free RPMI […]. Oxygen consumption (OCR) and extracellular flux (ECAR) were measured after injections of oligomycin (1 mg/mL), dinitrophenol […], rotenone […], and antimycin A […]. Analysis was performed by normalizing OCR and ECAR readouts to vehicle controls. Complex I and II activity were analyzed after permeabilization of the cells.

[2] = system: mitochondrial respiratory complex I; assay: Complex I derived oxygen consumption in permeabilized cells; format: cell-based, murine; details: KPC1242 cell line, 24-hour treatment
Protocol: as §1

AsPC-1 cells = assay: TMRE retention (mitochondrial depolarization) by flow cytometry in AsPC-1; format: cell-based, human; details: AsPC-1, 1 hour treatment
Protocol: (§2) AsPC-1 and HPSC cells were serum-starved overnight, loaded with tetramethylrhodamine ethyl ester (TMRE), and treated for 1 hour with the indicated concentrations of MMe or pCF3-MMe or, as the vehicle control, DMSO. Mitochondrial TMRE retention was measured by flow cytometry. Representative histograms of n=3 of TMRE fluorescence in AsPC-1 (FIG. 4A) and HPSC (FIG. 4B) in response to treatment. […] Total cellular ATP levels were analyzed using a luminescent ATP detection assay of KPC1242 cells treated with MMe (0.7 μM) or pCF3-MMe (3 μM), and changes in ATP levels were assayed (FIG. 4E). Representatives immunoblot analyses of phosphorylated and total AMPK levels (FIG. 4F) and densitometric quantification (FIG. 4G) in KPC1242 cells treated with MMe (0.7 μM) or pCF3-MMe (3 μM). […] Values are mean±SD from 3 biological replicates. Statistical differences in a, c, and e were determined using Student's t-test (*, p<0.05; **, p<0.01; ***, p<0.001, ns: not significant).
(§3) TPP-conjugated compounds are known to effectively target the mitochondria of cancer cells. Thus, the efficacy of pCF3-MMe to effectively target the mitochondria of cancer cells was tested and compared to normal cells using tetramethylrhodamine ethyl ester perchlorate (TMRE), a cell-permeant, positively-charged dye that accumulates in active mitochondria, and is released into the cytosol upon mitochondrial damage. […]

HPSC cells = assay: TMRE retention (mitochondrial depolarization) by flow cytometry in HPSC; format: cell-based, human; details: HPSC cell line, 1 hour treatment
Protocol: as §2, §3

| Compound | reduction in toxicity to normal cells compared to MMe [1] | sensitivity of normal non-transformed cells compared to cancer cells [1] | toxic effects towards non-transformed HPNE and HPSC-1 cells ([1]; compared to the parent MMe and the mCF3-MMe analog) | basal OCR, ATP-linked respiration, and maximal respiratory capacity (KPC1242 cells) | complex I derived OCR [2] | TMRE accumulation within the mitochondria (AsPC-1 cells) | TMRE accumulation within the mitochondria (HPSC cells) |
| --- | --- | --- | --- | --- | --- | --- | --- |
| N=C(N)NC(=N)NCCCCCCCCCC[P+](c1ccc(C(F)(F)F)cc1)(c1ccc(C(F)(F)F)cc1)c1ccc(C(F)(F)F)cc1.[Br-] [pCF3-MMe, (10-(3-carbamimidoylguanidino)decyl)tris(4-(trifluoromethyl)phenyl)phosphonium bromide] | ~10 fold | more than a log less sensitive | least toxic effects | concentration-dependent decrease | decreased complex I derived OCR | significantly reduced TMRE accumulation | did not affect TMRE accumulation |
| N=C(N)NC(=N)NCCCCCCCCCC[P+](c1ccccc1)(c1ccccc1)c1ccccc1.[Br-] [MMe, 10-[(carbamimidamidomethanimidoyl)amino]decyl-triphenylphosphonium bromide, reference compound] |  | more than a log less sensitive |  | concentration-dependent decrease | decreased complex I derived OCR | significantly reduced TMRE accumulation | did not affect TMRE accumulation |
